Reference: patent publication US20210000981A1, “CONJUGATED POLYCATIONIC POLYMERS, METHODS OF USING THE SAME AND METHODS OF TREATING AUTOIMMUNE DISEASES, INFECTIOUS DISEASES AND ACUTE RADIATION EXPOSURE” (Duke University, priority 2015, published 2021)

Assays:
DNA in plasmid form = assay: Plasmid DNA binding and LMWH displacement, agarose gel; details: 60° C. with agitation
Protocol: Using the biotinylated form of the polymer we have established a protocol to displace the DAMPs that are bound to the polymer using low-molecular weight heparin (LMWH). This method was validated by electrophoretic mobility shift assay (EMSA) and TLR stimulation.
(§1) DNA in plasmid form was bound to PAMAM-G3 via co-incubation at room temperature. […] LMWH displacement was executed at 60° C. with agitation of the DNA-polymer complex.

TLR = TLR reporter cell assays with DNA-polymer complex and LMWH; type: cell-based
Protocol: as §1

NZBW F1 mice = details: mouse, in vivo
[1] = tested on: NA-sensing TLRs (TLR3, 7, 8 and 9); assay: Inhibition of nucleic acid based TLR agonists by NASs; details: in vitro and in vivo

Q: How did the “displacement of DNA from DNA-polymer complex” value (DNA in plasmid form) turn out when low-molecular weight heparin [LMWH] was run?
A: Displacement of the DNA was also verified

Q: And the “TLR activation after displacement of DNA from polymer” value (TLR)?
A: elevated TLR activation

Q: And the “TLR activation, alone” value (TLR)?
A: no activation alone

Q: Which “maximum tolerated dose (MTD)” value (NZBW F1 mice) does the source give for “[NH2(CH2)2NH2]:(G=3); dendri PAMAM(NH2)32 [PAMAM-G3]” here?
A: 100 to 200 mg/kg

Q: For protamine sulfate, which “activities of nucleic acid based TLR agonists (CpG oligos, Poly I:C, ssRNA40/LyoVec)” value [1] is on record?
A: counteract the activities of multiple nucleic acid based TLR agonists in vitro and in vivo
